# Literature values in US8961928B2, “Ligand and metal complex having the same” (National Chiao Tung University, priority 2012, dated 2015).
# Where two headings read alike, the source gives them in different places.
Structure (SMILES),"Relaxivity r1 (pH 7.5 ± 0.1, data from Inorg. Chem., 2005, 44, 382)","Relaxivity r1 (pH 7.6 ± 0.1, data from Inorg. Chem., 2001, 40, 2170-2176)"
O=C([O-])CN(CCCN(CC(=O)[O-])CC(=O)[O-])CCN(CC(=O)[O-])CC(=O)[O-].[Gd+3] [[Gd(TTDA)]^2−],3.85 ± 0.03 mM⁻¹ s⁻¹,–
O=C([O-])CN(CCN(CC(=O)[O-])CC(=O)[O-])CCN(CC(=O)[O-])CC(=O)[O-].[Gd+3] [[Gd(DTPA)]^2−],–,3.89 ± 0.03 mM⁻¹ s⁻¹
